Experimental data from patent US20260256761A1, “COMPOSITIONS AND METHODS FOR THE IDENTIFICATION OF INHIBITORS OF AND TREATMENT FOR ECTOPIC CALCIFICATION” (UNIVERSITY OF PITTSBURGH-OF THE COMMONWEALTH SYSTEM OF …, priority 2022, published 2026).

Key:
[1] = system: human aortic valve interstitial cells (AVICs); test: Osteogenic assay: calcification of human AVICs in osteogenic media (Alizarin Red); assay type: cell-based; details: for calcification of AVICs: STAT5 inhibitor 10 μM added every two days during osteogenic (OST) treatment, after 21 days of treatment (FIG. 6D)
Method: Human cell isolation. Patient-specific lines were established by using the same valves for histopathology, RNA, and cell isolation. Primary aortic valve interstitial cells (AVICs) were obtained from the patient aortic valve. Briefly, leaflets were washed with PBS containing 10 mg/ml gentamicin (GIBCO) and 250 μg/ml fungizone (GIBCO) and dissociated with 0.1% collagenase II at 37 C and 5% of CO2 for 18 hours. Then, the tissue was further dissociated by gently mixing it by pipetting with a serological pipette to ensure the release of A VICs and then passed through a […] filter to remove debris. Cells were pelleted and then resuspended in Dulbecco's Modified Eagle's Medium (DMEM) supplemented with 10% fetal bovine serum (FBS) and 1×penicillin-streptomycin (P/S). Human coronary artery smooth muscle cells (CASMC) were obtained from patient coronary. Briefly, vessels were washed with PBS containing 10 mg/ml gentamicin (GIBCO) and 250 μg/ml fungizone (GIBCO). Vessels were cut open to expose the lumen and intima and adventitia were gently scrapped. Vessels were then sectioned and dissociated with 0.1% collagenase II for 3 hrs. Cells were pelleted and then seed and expanded.
(§1) Cell Culture. AVICs lines were expanded in Dulbecco's Modified Eagle's Medium supplemented with 10% fetal bovine serum and 1×penicillin-streptomycin. Cells were used between passages 4 and 15. Growth media was changed every three days, and cells were split 1:2 when confluent. CASMC lines were expanded in smooth muscle media SMGM (CC-3181) supplemented with BULLETKIT (CC-4149). Human MSCs (PT-2501, Lonza) were expanded on Minimum Essential Medium alpha without nucleosides and supplemented with 10% fetal bovine serum and 1×penicillin-streptomycin and used between passages 4 and 10. Cells are routinely tested for mycoplasma contamination.
(§2) Osteogenic Assay. […]
(§3) Alizarin Red Staining and Quantification. […] Absorbance was at 405 nm using a 96-well plate spectrophotometer.

hMSCs = test: Osteogenic assay: calcification of human mesenchymal stem cells; assay type: cell-based; details: inhibitor 10 μM, osteogenic media, 21 days (FIG. 17)
Method: When cells reached confluence, media was replaced with osteogenic media (Minimum Essential Medium alpha with nucleosides, 10% FBS 1×P/S, 10 mM glycerol phosphate, 50 uM ascorbic acid 2-phosphate, and 100 nM dexamethasone) for 21 days. No treatment media consisted of Minimum Essential Medium alpha with nucleosides, 10% FBS, 1×P/S. Media was replaced every four days. […] P were calculated by Kruskal-Wallis H test with Dunn pairwise comparison post hoc test. Scalebar 400 μm.
as §1, §2, §3

hCASMC = test: Osteogenic assay: calcification of human coronary artery smooth muscle cells; assay type: cell-based; details: inhibitor 10 μM, osteogenic media, 21 days (FIG. 16D, FIG. 6E)
Method: Scalebar 100 μm (middle panel). Quantification of PLA signal is shown on the right graphs. n=4. […] Diagram depicting STAT5 and TERT binding RUNX2 promoter and the positions of the predicted STAT5 binding sites (bottom panel). […] Scalebar 400 μm n=8; means±SD. Quantification of calcification is shown on the right graph. Data is represented as means±SD. P were calculated by Kruskal-Wallis H test with Dunn pairwise comparison post hoc test. Scalebar 400 um. […] When the cells reached confluence, media was replaced with osteogenic media (Minimum Essential Medium alpha with nucleosides, 10% FBS, 1×P/S, 10 mM glycerol phosphate, 50 μM ascorbic acid 2-phosphate, and 100 nM dexamethasone) for 21 days. No treatment media consisted of Minimum Essential Medium alpha with nucleosides, 10% FBS, 1×P/S. Media was replaced every four days.
Quantification of protein levels. n=4 control, n=4 CAVD; means±SD; two-way ANOVA. […] Scalebar 100 um. Quantification of PLA is shown on the right graph. n=4. […] P were calculated by Kruskal-Wallis H test with Dunn pairwise comparison post hoc test. Scalebar 400 um. […] Scalebar 50 um.
Human cell isolation. Patient-specific lines were established by using the same valves for histopathology, RNA, and cell isolation. Primary aortic valve interstitial cells (AVICs) were obtained from the patient aortic valve. […]
Alizarin Red Staining and Quantification. […]

STAT5A = biological target: T1, STAT5A (Homo sapiens, UniProt P42229); details: as reported; cited from earlier work
T1 sequence (P42229 1-794): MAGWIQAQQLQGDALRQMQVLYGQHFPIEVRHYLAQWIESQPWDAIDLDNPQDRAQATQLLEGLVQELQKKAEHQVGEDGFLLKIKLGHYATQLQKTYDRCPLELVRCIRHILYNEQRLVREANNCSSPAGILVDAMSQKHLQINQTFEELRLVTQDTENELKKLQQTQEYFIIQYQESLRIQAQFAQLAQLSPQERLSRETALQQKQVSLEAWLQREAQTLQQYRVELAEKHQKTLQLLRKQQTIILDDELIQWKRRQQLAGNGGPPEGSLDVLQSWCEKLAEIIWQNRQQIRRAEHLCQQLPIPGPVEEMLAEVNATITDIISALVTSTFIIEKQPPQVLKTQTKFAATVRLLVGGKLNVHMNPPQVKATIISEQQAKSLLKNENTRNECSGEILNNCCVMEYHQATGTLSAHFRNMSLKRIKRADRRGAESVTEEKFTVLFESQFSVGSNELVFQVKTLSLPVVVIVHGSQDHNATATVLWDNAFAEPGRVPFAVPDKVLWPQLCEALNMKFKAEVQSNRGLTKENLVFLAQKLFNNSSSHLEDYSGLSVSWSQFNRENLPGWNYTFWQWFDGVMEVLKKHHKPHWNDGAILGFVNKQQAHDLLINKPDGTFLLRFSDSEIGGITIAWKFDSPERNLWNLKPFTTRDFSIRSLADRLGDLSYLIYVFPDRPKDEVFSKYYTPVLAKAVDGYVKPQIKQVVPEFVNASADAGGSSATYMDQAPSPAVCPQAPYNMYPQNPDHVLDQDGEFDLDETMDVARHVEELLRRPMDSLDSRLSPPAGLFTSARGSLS

Structure (SMILES)	ability of AVICs to calcify ([1]; BIBR1532 at 1, 10, or 100 nM added every two days during OST treatment, 28 days (FIG. 13C))	calcification of AVICs [1]	calcification in hMSCs (hMSCs)	calcification in hCASMC (hCASMC)	specific inhibition of STAT5A isoform (STAT5A)
C/C(=C\C(=O)Nc1ccccc1C(=O)O)c1ccc2ccccc2c1 [BIBR1532]	did not alter the ability of AVICs to calcify				
COc1cc(-c2cc(OP(=O)(O)O)cc(-c3cc(OC)c(OC)c(OC)c3)c2)cc(OC)c1OC [StafiA-1]		significantly inhibited calcification	significantly reduced the calcification	significantly reduced the calcification	specifically inhibit
O=C(COc1ccc2cc(C(=O)Nc3ccccc3)ccc2c1)NCc1ccc(OP(=O)(O)O)c(OP(=O)(O)O)c1 [StafiB-1]		this inhibition was of a greater extent than the inhibition observed when AVICs were treated with StafiB-1		did not	
